The record followed here is patent US20100113415A1, “EPHA4 RTK INHIBITORS FOR TREATMENT OF NEUROLOGICAL AND NEURODEGENERATIVE DISORDERS AND CANCER” (priority 2008, published 2010).

Each structure is given as a SMILES string. pIC50: −log10 of the molar value. Where only a bound is given, the exact number is not on record here.

As a reminder, the inhibition is the change of the read-out against control, counted positive when it falls.

The target of series [1] is T1, Recombinant EphA4 kinase His6-TEV-EphA4 (aa. 615-911) (Homo sapiens, UniProt P54764).
T1 construct: His6-TEV-EphA4 (36 KD) (aa. 615-911); His6 (N); TEV cleavage site (N); made in house; host or cells: Sf9 (baculovirus)
T1 sequence (P54764 615-911): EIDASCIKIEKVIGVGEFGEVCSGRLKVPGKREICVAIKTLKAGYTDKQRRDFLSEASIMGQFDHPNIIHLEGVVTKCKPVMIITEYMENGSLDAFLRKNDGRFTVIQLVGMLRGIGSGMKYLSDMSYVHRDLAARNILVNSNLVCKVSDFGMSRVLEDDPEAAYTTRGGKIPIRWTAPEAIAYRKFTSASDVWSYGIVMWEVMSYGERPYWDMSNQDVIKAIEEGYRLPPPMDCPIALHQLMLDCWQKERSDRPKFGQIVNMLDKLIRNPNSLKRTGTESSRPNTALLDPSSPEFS
Put plainly: EphA4 kinase enzymatic assay (TR-FRET). It counts as biochemical. The settings on record: for pIC50: 25 μM ATP, TR-FRET; for inhibition at up to 100 µM: maximum percent inhibition, titration starting at 100 μM, read-out: EphA4 Kinase max inhibition in %. As for the experimental part: Recombinant EphA4 kinase His6-TEV-EphA4 (36 KD) (aa. 615-911) was expressed in Sf9 using baculovirus expression system. Hi-tagged protein was purified by high performance liquid chromatography in two step, using a His Trap HP column and a heparin column. The potency of compounds to inhibit EphA4 kinase phosphorylation was measured by an enzymatic assay based on time resolved fluorescence energy transfer assay format (TR-FRET), using Eu-W1024 anti-pTyr antibody (Perkin Elmer, USA) as a donor and SureLight APC (Perkin Elmer, USA) as an acceptor.
Biotinylated Poly(Glu Tyr) peptide (50 nM) was incubated in 384-well with 25 μM ATP (Sigma) and 10 ng EphA4 kinase in NEBuffer (New England Biolabs) for 60 minutes at rt. The reaction was stopped by 15 mM of EDTA solution for 10 minutes at rt. The detection mixture containing 0.5 nM Eu-W1024 anti-pTyr antibody (Perkin Elmer, USA) and 50 nM SureLight APC (Perkin Elmer, USA) was added to the wells and the plate was incubated for 30 min at rt, while protected from light. Energy transfer signal was measured using a Victor 2V (excitation filter 340, emission filter 615 and 665, delay time 50 μs). Results were expressed as ratios of the absorbencies 665/615.
(§1) Compounds were titrated in duplicate at 11 points concentration starting at 100 μM with a 3 fold increment. Compounds were diluted in DMSO. […] Percentage inhibition for each compound was then calculated based on the value of the 100% inhibition. Concentration-response curves were represented and the concentrations for 50% inhibition (IC50) were calculated.
A general note: In TR-FRET formats the signal depends on donor and acceptor labels being close together.

Series [2] concerns C2C12 mouse myoblast cell line. Put plainly: Scratch wound assay, C2C12 cells. It counts as cell-based. The settings on record: from AUC of % wound confluence; for pIC50: Mus musculus, C2C12, inflexion point, read-out: Scratch Assay C2C12 Cells IP. As for the experimental part: Cell Cultures: C2C12 mouse myoblast cell line (ATCC, VA, USA) was maintained in culture in DMEM media supplemented with 10% fetal bovine serum, 1 mM sodium pyruvate, 1.5 g/L sodium bicarbonate, and 100 IU of penicillin, […] of streptomycin. The cells were then differentiated into myotubes with DMEM supplemented with 2% horse serum for 3 days in 24 well ImageLock™ plate (Essen Instruments, MI, USA).
Scratch wound assays are commonly used to assess the effects of drugs and drug candidates on the cellular proliferation and/or migration associated with wound closing. The IncuCyte™ system (Essen Instruments, MI, USA), an automated imaging platform, provides ongoing, real-time images and quantitative data generated throughout the wound-closing process. Cells were maintained in 24 well ImageLock™ (Essen Instruments, MI, USA) at 37° C. and 95% CO2/5% O2, until a confluent monolayer was achieved. A single scratch wound was then created in each well using the Essen Woundmaker™ (Essen Instruments, MI, USA). It induced a mechanical scratch of the cell monolayer using plastic pipette tips (10-20 μl pipette tips, Eppendorff). Dead cells and other debris produced by the scratch were immediately washed with regular growth media. Cells were then treated with pharmacological agents and were placed into the IncuCyte™ at 37° C. and 95% CO2/5% O2, for two to three days. During this time, the wound area within each well was repeatedly imaged at fixed time intervals (every three hours). The IncuCyte™ scratch wound software generates a “wound mask” for each well. An initial wound mask is created for the first image (at time 0) that clearly delineates the border of the wound. A revised mask is generated for each subsequent image to track wound closure. Wound closure can be automatically monitored using the wound confluence (% confluence). Wound confluence can be graphed over time to evaluate the characteristics of wound closing in the presence of pharmacological agents.
The calculation of the area under the curve (AUC) of the % confluence function of the time gave a quantitative measurement of compounds efficacy on the scratch wound closing. Compounds were titrated in quadruplicate at 5 points concentration starting at 20 μM with a two-fold increment. The percentage of inhibition was calculated from the AUCs at each dose in comparison with the AUCs of the control wells (1% DMSO). Concentration-response curves were represented and the concentrations at the inflexion point (IP) were calculated. The maximum effect was given by the maximum percent inhibition.

The next series has as its target T2, Jak2 (Homo sapiens, UniProt O60674).
T2 construct: purchased Cell Signaling, USA
Put plainly: Jak2 kinase counterscreen enzymatic assay (TR-FRET). The class given is biochemical. The settings on record: 5 μM ATP. The method, then:
Counterscreen assays were developed for the tyrosine kinases src kinase and Jak2 kinase, with a format essentially identical to the EphA4 kinase TR-FRET format. Jak2 (50 ng) (Cell Signaling, USA) was incubated with 0.5 μM of biotinylated FLT3 peptide (Cell Signaling, USA) in presence of 5 μM of ATP (Sigma). P60c-src (10 U/well) (Upstate biotechnology, USA) was incubated with biotinylated Poly(Glu Tyr) peptide (100 nM) in presence of 0.5 μM of ATP. The enzymatic reaction was stopped after 60 min by adding 15 mM EDTA. The detection reaction and energy transfer signal measurements were similar to those previously described. Results were expressed as ratios of the absorbencies 665/615.
as §1
For orientation: The purpose of a counterscreen is to sort out artefacts and off-target activity.

Series [3] deals with Primary Rat cortical astrocytes. Put plainly: Toxicity (percent of cell death), astrocytes. It counts as cell-based. As to conditions: at 20 μM. The method, then:
EphA4 kinase inhibition is assessed by both an enzymatic assay measuring the phosphorylation of a purified recombinant EphA4 kinase and a cell-based assay using the activation of pGas-Luciferase system in EphA4-transfected CHO-K1 cells. The functional effects of EphA4 RTK inhibitors on cell motility and proliferation is evaluated by the scratch wound assay. The effect of EphA4 RTK inhibitors is also directly measured on the cell confluence. The counterscreen assays (cell counterscreen, Src, Jak2 and P38α kinase) identified other potential inhibitory activities of compounds unrelated to EphA4 kinase. The toxicity is measured by the percent of cell death in the different cell assays. Values represent IC50 and IP in μM calculated from the dose-response curves. Values in parentheses give the maximum percent inhibition.

T2 sequence (O60674 whole entry, species assumed): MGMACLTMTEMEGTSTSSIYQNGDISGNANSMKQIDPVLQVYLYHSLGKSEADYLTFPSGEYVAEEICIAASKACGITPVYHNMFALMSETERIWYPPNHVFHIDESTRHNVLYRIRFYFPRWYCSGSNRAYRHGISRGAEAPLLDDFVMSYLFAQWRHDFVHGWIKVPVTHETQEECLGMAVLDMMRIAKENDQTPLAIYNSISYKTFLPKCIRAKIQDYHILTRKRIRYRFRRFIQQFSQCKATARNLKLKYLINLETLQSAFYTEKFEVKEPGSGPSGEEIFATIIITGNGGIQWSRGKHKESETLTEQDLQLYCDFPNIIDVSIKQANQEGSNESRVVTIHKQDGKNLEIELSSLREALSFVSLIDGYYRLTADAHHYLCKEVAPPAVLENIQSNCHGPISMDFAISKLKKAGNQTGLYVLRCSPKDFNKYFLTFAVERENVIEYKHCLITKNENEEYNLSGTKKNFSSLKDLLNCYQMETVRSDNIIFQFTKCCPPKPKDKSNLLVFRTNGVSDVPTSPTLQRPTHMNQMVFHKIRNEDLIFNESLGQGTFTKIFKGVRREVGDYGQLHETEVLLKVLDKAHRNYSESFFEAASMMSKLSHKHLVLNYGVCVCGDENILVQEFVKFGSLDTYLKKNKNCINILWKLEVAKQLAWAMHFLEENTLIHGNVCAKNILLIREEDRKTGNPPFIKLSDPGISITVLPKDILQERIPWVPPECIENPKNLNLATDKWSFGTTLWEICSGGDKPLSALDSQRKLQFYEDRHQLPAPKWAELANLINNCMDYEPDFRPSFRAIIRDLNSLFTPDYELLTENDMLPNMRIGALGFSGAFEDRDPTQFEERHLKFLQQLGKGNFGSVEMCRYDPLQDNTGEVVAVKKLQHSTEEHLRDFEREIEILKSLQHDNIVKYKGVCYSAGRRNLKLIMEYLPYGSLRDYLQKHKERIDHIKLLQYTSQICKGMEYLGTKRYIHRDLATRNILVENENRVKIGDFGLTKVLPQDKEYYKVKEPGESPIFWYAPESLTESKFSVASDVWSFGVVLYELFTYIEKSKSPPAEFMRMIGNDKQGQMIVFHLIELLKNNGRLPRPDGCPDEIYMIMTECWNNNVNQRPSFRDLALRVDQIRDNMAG

Turning to `Cc1ccccc1-c1nc2[nH]nc(N)c2c2c1CCC(C)(C)C2` [Example 67], in series [1], the pIC50 is 5.82 and the inhibition at up to 100 µM was determined as 100%. Further, in series [2], the pIC50 was 6.30 and the “Scratch Assay C2C12 Cells max inhibition in %” value was 78%. Further, at Jak2, the pIC50 was 6.00. In series [3], the “Max Toxicity Astrocytes % of cell death” value came to 12.5% at 20 μM.
Turning to `CC1CCc2c(-c3ccccc3Cl)nc3[nH]nc(N)c3c2C1` (stereo not drawn) [Example 63], in series [1], the pIC50 was 5.68 and the inhibition at up to 100 µM stood at 99%. Besides, in series [2], the pIC50 was 5.51 and the “Scratch Assay C2C12 Cells max inhibition in %” value was found to be 46%. The compound also had a pIC50 against Jak2 of under 4.00. In addition, the “Max Toxicity Astrocytes % of cell death” value in series [3] was determined as 5% at 20 μM.
